The target in assay [1] is T1, NAD-dependent protein deacylase sirtuin-5, mitochondrial (Homo sapiens, UniProt Q9NXA8). In words: Inhibition of SIRT5 (unknown origin) at 30 uM using (DABCYL)ISGASE(SuK)DIVHSE(EDANS)G peptide substrate incubated for 1 hrs followed by 1 hr incubation with trypsin and nicotinamide by FRET-based assay.
Target sequence in this assay (Q9NXA8 37-310 limits assumed): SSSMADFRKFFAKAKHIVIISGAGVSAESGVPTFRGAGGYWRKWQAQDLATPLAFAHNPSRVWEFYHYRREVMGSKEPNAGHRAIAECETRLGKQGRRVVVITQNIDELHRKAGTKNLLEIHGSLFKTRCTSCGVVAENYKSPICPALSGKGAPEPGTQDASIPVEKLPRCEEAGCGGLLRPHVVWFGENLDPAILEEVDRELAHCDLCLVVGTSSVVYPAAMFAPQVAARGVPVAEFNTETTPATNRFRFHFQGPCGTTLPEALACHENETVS
The target of assay [2] is T1, NAD-dependent protein deacylase sirtuin-5, mitochondrial. Description: Inhibition of human SIRT5 assessed as reduction in desuccinylase activity using KQTAR(SuK)STGGKA substrate.
Target sequence in this assay (Q9NXA8 whole entry): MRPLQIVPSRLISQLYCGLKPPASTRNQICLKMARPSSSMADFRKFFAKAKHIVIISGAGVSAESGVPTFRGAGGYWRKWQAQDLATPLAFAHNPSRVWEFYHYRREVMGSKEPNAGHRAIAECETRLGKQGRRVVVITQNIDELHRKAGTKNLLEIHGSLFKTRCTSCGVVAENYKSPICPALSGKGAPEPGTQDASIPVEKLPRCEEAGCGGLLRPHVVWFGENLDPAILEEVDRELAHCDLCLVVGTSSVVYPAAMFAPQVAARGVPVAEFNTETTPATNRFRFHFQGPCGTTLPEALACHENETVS

Experimental findings from ChEMBL document CHEMBL3400009, “A FRET-based assay for screening SIRT5 specific modulators” (Bioorg Med Chem Lett, 2015) are described below.

Each structure is given as a SMILES string. The source made the active and inactive calls. No cut-off for these calls is given here.

For the compound `N#C/C(=C\c1ccc(-c2cc(Cl)ccc2Cl)o1)C(=O)Nc1cccc2ncccc12`, in assay [1], the inhibition entry was “inactive”. Further, in assay [2], the IC50 – broadly, the concentration at which inhibition is half-maximal – was > 100 µM.

For the compound `Cc1ccc(C(=O)Nc2ccc(S(=O)(=O)O)c3cc(S(=O)(=O)O)cc(S(=O)(=O)O)c23)cc1NC(=O)c1cccc(NC(=O)Nc2cccc(C(=O)Nc3cc(C(=O)Nc4ccc(S(=O)(=O)O)c5cc(S(=O)(=O)O)cc(S(=O)(=O)O)c45)ccc3C)c2)c1`, in assay [1], the inhibition result was “Active”.

Regarding `O=C1CCc2c(ccc3ccccc23)O1` [SPLITOMICIN], the inhibition result in assay [1] was “inactive”. In assay [2], the IC50 was > 100 µM.

For the compound `CC(NC(=O)c1ccccc1/N=C/c1c(O)ccc2ccccc12)c1ccccc1` (stereo not drawn) [SIRTINOL], the inhibition entry in assay [1] was “inactive”. Further, the IC50 in assay [2] is > 100 µM.

For the compound `NC(=O)c1cccnc1`, the inhibition result in assay [1] was “inactive”.
